From US12453725B2, “Treatment of inflammatory disease” (Celleron Therapeutics Limited, priority 2019, dated 2025)

What was measured:
[1] = Phase Ib/II clinical trial CTL-101-023, CXD101 with nivolumab, safety; assay type: in vivo, human; settings: study CTL-101-023
Protocol: A clinical trial was conducted involving 55 subjects. The clinical trial protocol is summarized below: • Protocol Number: CTL-101-023 • Investigational Product: CXD101 and nivolumab Active Ingredient(s)/INN: • CXD101 or N-(2-aminophenyl)-4-(1-[(1,3-dimethyl-1H-pyrazol-4yl) methyl]piperidin-4-yl)benzamide is a Class I-selective histone deacetylase (HDAC) inhibitor. • Nivolumab is a programmed death receptor-1 (PD-1)-blocking antibody. […] 2. […] Subjects may continue to receive CXD101/nivolumab until complete response, disease progression, unacceptable toxicity, withdrawal of consent, or other medical problems supervene. • Efficacy will be measured using Immune Response Evaluation Criteria in Solid Tumours (iRECIST) Imaging studies, typically CT scan of chest, abdomen & pelvis, supplemented by MRI of liver when required, will be performed at Baseline and after every 6 weeks, with objective confirmation of response 6 weeks (+/−1 week) after observation. • Safety parameters will be assessed as in the Phase I study. […]

[2] = test system: mouse colorectal colon26 cells; experiment: Proliferation of colon26 cells; assay type: cell-based; settings: dose- and time-dependent
Protocol: Three human colorectal adenocarcinoma cell lines: SW620 (ATCC® CCL-227™), HCT-15 (ATCC® CCL-225™), LoVo (ATCC® CCL-229™), and one mouse colon carcinoma cell line: CT26 (ATCC® CRL-2638™) were obtained from ATCC. Human cell lines were cultured in DMEM (Lonza Group, Switzerland), while CT26 in RPMI (Biowest, France). The media were supplemented with 10% FBS and 1% penicillin-streptomycin (Lonza Group, Switzerland). Cells were cultured under standard conditions.
In order to assess the cytotoxicity of CXD101, cells were seeded onto 96-well plates overnight and the next day were dosed with CXD101 and incubated for 72 h or 120 h. Next, 100 μl of Thiazolyl Blue Tetrazolium Bromide (MTT, Sigma-Aldrich, USA) was added into a well (final concentration […]) and incubated for 2 h at 37° C. After that medium was discarded and formazan crystals were dissolved in 100 μl DMSO (VWR International, USA) by shaking for 15 minutes. Absorbance was read by Omega FLUOstar plate reader (BMG Labtech Ltd, Germany) at the 584 nm wavelength. Data were analysed and IC50 doses calculated in GraphPad Prism (GraphPad Software, USA).

[3] = test system: colon26 tumours; experiment: Immunohistochemistry of colon26 tumour sections; assay type: in vivo, Balb/c mice
Protocol: Tumours were harvested, embedded in paraffin blocks and cut into 5 μm sections. Antigen retrieval was achieved by incubating in sodium citrate. Sections were incubated with primary antibodies: anti-H3Ack9 (ab10812, abcam), anti-CD8 (ab203035, abcam), anti-CD4 (ab183685, abcam), anti-CD68 (GR300628, abcam), anti-CD163 (GR3232711, abcam and, anti-FoxP3 (14208S, New England Biolabs) and further stained with anti-rabbit secondary antibody (VECTASTAIN Elite ABC HRP Kit, Vector Laboratories Inc, USA) according to the manufacturer protocol. Signal was detected by DAB (3, 3-diaminobenzidine, Vector Laboratories Inc, USA) and sections were counterstained with haematoxylin (Hematoxylin solution Mayer's; pH 2.4, Merck Group, Germany). Pictures were taken using Leica DM2500 optical microscope (Leica Microsystems, Germany) and the signal was semi-quantified by means of ImageJ Fiji software (National Institutes of Health, USA, doi:10.1038/nmeth.2019).

[4] = cited from earlier work
[5] = test system: A20 tumours; experiment: Syngeneic A20 B cell lymphoma model; assay type: in vivo, mouse; settings: CXD101 50 mg/kg
Text: In order to rule out that the effects of the combined therapy were specific to the colon26 and MC38 colorectal cancer model, we widened the study to the syngeneic A20 B cell lymphoma model (FIG. 10). A20 tumours are reported to express high levels of PD-L1 and are responsive to immunomodulatory antibodies (32).

[6] = physchem; settings: 25 °C, aqueous buffer
[7] = relative to untreated control animals

Cc1nn(C)cc1CN1CCC(c2ccc(C(=O)Nc3ccccc3N)cc2)CC1 [CXD101, N-(2-aminophenyl)-4-(1-[(1,3-dimethyl-1H-pyrazol-4-yl)methyl]piperidin-4-yl)benzamide]
neutropenia due to myelosuppression [1]: varying degrees of neutropenia
proliferation of colon26 cells [2]: inhibits proliferation
CD68 macrophages ([3]; compared to untreated animals): reduced
CD163 macrophages ([3]; compared to untreated animals): reduced
change in Tregs (FoxP3) ([3]; mouse, in vivo): quite modest
level of CD4 lymphocytes in tumour [3, 7]: significant increase
level of CD8 lymphocytes in tumour [3, 7]: significant increase
nuclear H3K9 acetylation ([3]; treated vs untreated animals): increased levels
patients with tumour reduction ([4]; T-cell lymphoma, follicular lymphoma, Hodgkin lymphoma): 63%
MTD ([4]; for 5 days in a 3-weekly cycle): 20 mg B.D.
A20 tumour progression [5]: modest effect
solubility [6]: ≥ 500 µg/mL
